The values below come from article PMC10582333 (Frontiers in Pharmacology, 2023).

Like-named read-outs stand apart in the source and are kept apart here. Where only a bound is given, the exact number is not on record here.

One data set relates to 22RV1 tumor. In words: 22RV1 xenograft tumor growth in NCR-nude mice. To be noted: enzalutamide alone, 5 mg/kg po QD, 7 days. Format: in vivo, human. The source says:
Differences were considered statistically significant at p < 0.05.
On the technique in general: Xenograft models place foreign cells or tissue in a host animal.

Data set [1] deals with castration-resistant prostate cancer (CRPC). To be noted: cited from earlier work.
Data set [2] concerns the target T1, glucocorticoid receptor (Homo sapiens, UniProt P04150).
T1 sequence (P04150 1-777): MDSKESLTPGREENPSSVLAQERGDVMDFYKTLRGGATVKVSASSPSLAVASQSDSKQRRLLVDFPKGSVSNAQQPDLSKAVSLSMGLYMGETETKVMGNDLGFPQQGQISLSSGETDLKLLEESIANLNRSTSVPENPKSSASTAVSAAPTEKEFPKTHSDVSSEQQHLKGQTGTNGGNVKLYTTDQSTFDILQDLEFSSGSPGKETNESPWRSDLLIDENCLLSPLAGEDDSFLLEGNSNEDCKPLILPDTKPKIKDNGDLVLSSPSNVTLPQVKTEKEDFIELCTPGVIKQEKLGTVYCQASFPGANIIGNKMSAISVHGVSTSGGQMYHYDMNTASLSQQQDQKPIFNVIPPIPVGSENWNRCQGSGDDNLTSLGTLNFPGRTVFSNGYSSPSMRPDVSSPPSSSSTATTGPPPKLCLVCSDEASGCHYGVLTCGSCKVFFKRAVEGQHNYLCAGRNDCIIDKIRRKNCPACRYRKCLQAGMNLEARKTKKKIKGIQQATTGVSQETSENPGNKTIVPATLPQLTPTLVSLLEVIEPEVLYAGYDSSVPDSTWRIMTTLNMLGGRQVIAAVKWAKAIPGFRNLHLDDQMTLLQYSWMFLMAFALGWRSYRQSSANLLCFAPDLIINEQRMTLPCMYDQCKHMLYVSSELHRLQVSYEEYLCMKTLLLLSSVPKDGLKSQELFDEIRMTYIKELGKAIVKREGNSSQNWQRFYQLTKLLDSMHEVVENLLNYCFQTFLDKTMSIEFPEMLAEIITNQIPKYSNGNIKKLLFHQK
Put plainly: AR (ARE) luciferase reporter assay, 22RV1 cells with DEX (GR-driven). Format: cell-based. Also noted: AR luciferase reporter assay using 22RV1 cells that express GR; endogenous in cells; host or cells: 22RV1. On the procedure: (§1) The 22RV1, LNCaP and PC3 cell lines were stably transfected with a PGL4.2 luciferase reporter (Promega, Madison, USA). This reporter contains a sequence (3xgtaattgcagaacagcaagtgctagctctc) representing the wild type of Androgen Response Element (ARE) derived from the Prostate-Specific Antigen (PSA) promoter. […] This transfection was accomplished using Lipofectamine 3000 (Thermo Fisher Scientific, Waltham, MA). Stable clones were selected and maintained with puromycin (0.5 μg/mL). […] The pcDNA5 plasmid (Thermo Fisher Scientific, Waltham, MA), carrying the full open reading frame of GR, was transfected into LNCaP cells, and hygromycin (50 μg/mL) was employed to select and maintain stable clones.
(§2) 10^4 reporter cells per well of 96-well plate were seeded in RPMI1640 media supplemented with 5% dialysis activated carbon treated FBS, 50 μg/mL Kanamycin in a 37°C, 5% CO2 incubator for 48 h. Cells were treated with herbal extracts at 30, 100, 300, and 600 μg/mL for 24 h in a 37°C-CO2 incubator. […] Dexamethasone (50 nM) was used to stimulate glucocorticoid receptor activity. Cells were lysed using luciferase lysis buffer after which luciferase buffer with luciferin was added to generate luminescence. Luminescence was recorded using a luminescence microplate reader. The IC50 is the concentration of treatment agent required to reduce the measured luminescence to half of its maximal value.
(§3) GAPDH was used as protein loading control for normalization. […] Details of experimental procedures are given in Materials and methods.
In general terms: In a reporter assay the amount or activity of a reporter protein is the signal.

The target in data set [3] is T1, glucocorticoid receptor. Put plainly: AR (ARE) luciferase reporter assay, LNCaP-GR cells with DEX (GR-driven). In kind it is cell-based. The procedure:
as §1, §2, §3

Data set [4] addresses T1, glucocorticoid receptor. Put plainly: AR (ARE) luciferase reporter assay, PC3 cells (no ligand or DEX, GR-driven). In kind it is cell-based. Also noted: PC3 cells that only express GR and respond solely to DEX; endogenous in cells; host or cells: PC3. To be noted: 24 h. The procedure:
as §1, §2, §3

Data set [5] addresses T2, androgen receptor (Homo sapiens, UniProt P10275, T878A).
T2 construct: LNCaP cells that only express AR and respond solely to DHT; endogenous in cells; host or cells: LNCaP; LNCaP-GR
T2 sequence (P10275 1-920 T878A): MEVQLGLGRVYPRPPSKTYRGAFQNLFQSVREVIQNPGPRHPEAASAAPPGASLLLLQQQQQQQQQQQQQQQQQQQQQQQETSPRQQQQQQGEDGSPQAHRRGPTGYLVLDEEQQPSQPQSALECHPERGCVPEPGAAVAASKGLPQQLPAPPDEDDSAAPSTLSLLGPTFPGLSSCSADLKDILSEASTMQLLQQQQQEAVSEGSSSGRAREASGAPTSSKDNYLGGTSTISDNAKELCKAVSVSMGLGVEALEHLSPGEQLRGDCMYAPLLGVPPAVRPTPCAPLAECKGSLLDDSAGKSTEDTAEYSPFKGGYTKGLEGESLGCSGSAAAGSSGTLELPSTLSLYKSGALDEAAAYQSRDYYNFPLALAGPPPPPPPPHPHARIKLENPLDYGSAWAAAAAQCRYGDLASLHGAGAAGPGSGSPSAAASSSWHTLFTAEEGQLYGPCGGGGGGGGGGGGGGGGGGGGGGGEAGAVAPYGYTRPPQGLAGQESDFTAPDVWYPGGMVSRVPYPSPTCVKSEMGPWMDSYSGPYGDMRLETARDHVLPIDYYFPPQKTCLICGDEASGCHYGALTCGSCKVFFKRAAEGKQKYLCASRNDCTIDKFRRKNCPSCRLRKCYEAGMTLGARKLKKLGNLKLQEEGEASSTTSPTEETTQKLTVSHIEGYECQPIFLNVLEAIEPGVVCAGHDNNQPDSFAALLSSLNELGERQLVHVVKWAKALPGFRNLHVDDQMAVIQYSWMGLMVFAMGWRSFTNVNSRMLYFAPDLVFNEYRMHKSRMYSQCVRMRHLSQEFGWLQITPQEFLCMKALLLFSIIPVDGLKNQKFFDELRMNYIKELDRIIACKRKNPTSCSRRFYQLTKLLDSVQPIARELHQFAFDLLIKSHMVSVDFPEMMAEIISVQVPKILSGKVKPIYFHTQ
In words: cell-based. On the procedure:
as §1, §2, §3

The target of data set [6] is T2, androgen receptor. In words: AR (ARE) luciferase reporter assay, LNCaP cells (no ligand or DHT). In kind it is cell-based. On the procedure:
as §1, §2, §3

Data set [7] deals with androgen receptor (Homo sapiens, UniProt P10275). In kind it is cell-based. On the procedure: as §1
Sequence of androgen receptor (Homo sapiens, UniProt P10275) (P10275 whole entry): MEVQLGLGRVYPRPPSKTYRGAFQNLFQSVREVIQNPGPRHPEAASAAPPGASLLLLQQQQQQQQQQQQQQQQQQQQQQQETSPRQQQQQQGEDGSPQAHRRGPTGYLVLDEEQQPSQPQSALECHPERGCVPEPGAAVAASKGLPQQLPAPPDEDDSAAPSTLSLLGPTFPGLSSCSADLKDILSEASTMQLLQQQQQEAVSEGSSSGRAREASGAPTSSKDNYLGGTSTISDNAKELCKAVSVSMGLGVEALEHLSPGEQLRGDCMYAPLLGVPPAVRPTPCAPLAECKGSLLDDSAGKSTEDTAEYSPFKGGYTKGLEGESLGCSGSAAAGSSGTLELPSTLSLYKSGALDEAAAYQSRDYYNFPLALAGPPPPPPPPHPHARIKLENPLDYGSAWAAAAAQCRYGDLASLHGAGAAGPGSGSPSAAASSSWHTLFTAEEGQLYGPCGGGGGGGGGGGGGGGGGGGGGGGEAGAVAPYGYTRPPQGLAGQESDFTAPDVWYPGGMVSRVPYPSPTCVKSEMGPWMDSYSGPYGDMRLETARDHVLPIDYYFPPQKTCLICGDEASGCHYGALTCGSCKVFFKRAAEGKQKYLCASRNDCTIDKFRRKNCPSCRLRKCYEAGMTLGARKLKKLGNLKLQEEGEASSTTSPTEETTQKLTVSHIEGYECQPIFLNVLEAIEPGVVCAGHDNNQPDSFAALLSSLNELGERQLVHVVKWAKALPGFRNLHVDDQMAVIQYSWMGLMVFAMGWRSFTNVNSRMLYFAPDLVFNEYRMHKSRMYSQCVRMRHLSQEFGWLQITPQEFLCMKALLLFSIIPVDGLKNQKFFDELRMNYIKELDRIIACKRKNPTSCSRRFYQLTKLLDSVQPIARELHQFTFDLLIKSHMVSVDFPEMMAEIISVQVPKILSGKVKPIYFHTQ
as §2, with “value. […]” for “value.”

For data set [8] the following is noted: ref Rice et al., 2019; cited from earlier work. The source says: Prostate cancer is the second leading cause of cancer death among men in the United States. According to the National Cancer Institute over 3 million men in the United States are living with prostate cancer, with 288,300 additional cases and 34,700 deaths expected in 2023. Androgen receptor (AR) signaling plays a key role in development of Benign prostatic hyperplasia (BPH) and prostate cancer ([Shiota et al., 2011]; [Gioeli and Paschal, 2012]; [Mills, 2014]; [Wong et al., 2014]; [Tan et al., 2015]). Therefore, androgen or Androgen R targeted therapy has become a major focus for the prevention ...

A further data set deals with AR. The arrangement: method as in Rice et al., 2019. The settings on record: ref Rice et al., 2019; cited from earlier work. The source says:
Prostate cancer is the second leading cause of cancer death among men in the United States. […] Therefore, androgen or Androgen R targeted therapy has become a major focus for the prevention ...

The test system of data set [9] is de novo protein synthesis. The arrangement: method as in Zalacain et al., 1982; Chan et al., 2004; Keysar et al., 2020. The settings on record: ref Zalacain et al., 1982; Chan et al., 2004; Keysar et al., 2020; cited from earlier work.
[10] abbreviates: of patients, ref Cattrini et al., 2022.
Setting [11] is: IC50 for ARE-luciferase reporter, ligand: -.
[12] abbreviates: IC50 for ARE-luciferase reporter, ligand: DEX (50 nM).
The mark [13] stands for this setting: IC50 for ARE-luciferase reporter.
Setting [14] is: read-out: IC50 for ARE-luciferase reporter.

Regarding `CNC(=O)c1ccc(N2C(=S)N(c3ccc(C#N)c(C(F)(F)F)c3)C(=O)C2(C)C)cc1F` [Enzalutamide], in the data set with 22RV1 tumor, the 22RV1 tumor growth result is given as “not found to substantially decrease the growth of 22RV1 tumors”. Also, the “grade 3 adverse events or higher” value in data set [1] (setting [10]) was “approximately 25%”. Besides, the “most common side effects” value in [1] (ref Cattrini et al., 2022) was “fatigue, hypertension, diarrhea, and weight loss”. Moreover, the “inhibition of Dex-induced luciferase activity” value at glucocorticoid receptor [2] (22RV1, DEX 50 nM, 24 h) is reported as “unable to inhibit GR-mediated luciferase activity”. The “inhibition of DEX-induced luciferase activity” value on glucocorticoid receptor [3] (LNCaP-GR, DEX 50 nM, 24 h) is “no effect”; against glucocorticoid receptor [4] (DEX 50 nM), “no effect”.

One may read the IC50 as the concentration needed to halve the response being measured. Consider `COc1ccc(C[C@H]2C(=O)N[C@@H](C)C(=O)N(C)[C@H]3Cc4ccc(cc4)Oc4cc(ccc4O)C[C@@H](C(=O)N[C@H](C)C(=O)N[C@@H](C)C(=O)N2C)N(C)C3=O)cc1` [RA-V, Deoxybouvardin], for which the IC50 at androgen receptor [5] (LNCaP-GR, ligand: +DHT (25 nM), 24 h, read-out: IC50 for ARE-luciferase reporter) was 4.1 ± 1.3 nM; on androgen receptor [5] (LNCaP-GR, ligand: -, 24 h, read-out: IC50 for ARE-luciferase reporter) it was over 100 nM; on glucocorticoid receptor [2] (22RV1, ligand: +DEX (50 nM), 24 h, read-out: IC50 for ARE-luciferase reporter), 22 ± 5 nM; at glucocorticoid receptor [3] (LNCaP-GR, ligand: +DEX (50 nM), 24 h, read-out: IC50 for ARE-luciferase reporter) it was 7.8 ± 2.2 nM; at androgen receptor [6] (LNCaP, ligand: +DHT (25 nM), 24 h, read-out: IC50 for ARE-luciferase reporter), 5.3 ± 1.4 nM; on androgen receptor [6] (LNCaP, ligand: -, 24 h, read-out: IC50 for ARE-luciferase reporter), over 100 nM. In addition, the IC50 stood at 40 ± 19 nM on glucocorticoid receptor [4] (ligand: -, read-out: IC50 for ARE-luciferase reporter) and 5.7 ± 2.3 nM on glucocorticoid receptor [4] (ligand: DEX (50 nM), read-out: IC50 for ARE-luciferase reporter).

On to `COc1ccc(C[C@H]2C(=O)N[C@@H](C)C(=O)N(C)[C@H]3Cc4ccc(cc4)Oc4cc(ccc4OC)C[C@@H](C(=O)N[C@H](C)C(=O)N[C@@H](C)C(=O)N2C)N(C)C3=O)cc1` [RA-VII], for which the IC50 against glucocorticoid receptor [2] came to 13.5 ± 5 nM; at glucocorticoid receptor [3], 5.6 ± 2.3 nM; against glucocorticoid receptor [4] (setting [11]), 32 ± 9 nM; at glucocorticoid receptor [4] (setting [12]), 3.6 ± 0.6 nM.

Consider `COc1ccc(C[C@H]2C(=O)N[C@@H](C)C(=O)N(C)[C@H]3Cc4ccc(cc4)Oc4cc(ccc4O)C[C@@H](C(=O)N[C@H](C)C(=O)N[C@@H](CCC(=O)O)C(=O)N2C)N(C)C3=O)cc1` [RA-XI], for which the IC50 against androgen receptor [5] (setting [13]), on androgen receptor [5] (setting [14]), at glucocorticoid receptor [2], against glucocorticoid receptor [3], on androgen receptor [6] (setting [13]) and on androgen receptor [6] (setting [14]) was over 250 nM in each case. Also, the IC50 at glucocorticoid receptor [4] (setting [11]) and against glucocorticoid receptor [4] (setting [12]) was over 250 nM throughout. On androgen receptor [7], the “comparative potency (anti-AR and anti-GR activity)” value is “significantly reduce the anti-AR and anti-GR activity”. At androgen receptor [7], the “inhibition of luciferase activity in any assay” value is “did not inhibit luciferase activity in any assay”.

For `CNC(=O)c1ccc(N2C(=S)N(c3cnc(C#N)c(C(F)(F)F)c3)C(=O)C23CCC3)cc1F` [apalutamide], the brain penetrance entry in data set [8] is recorded as “reductions in brain penetrance”. The “grade 3 adverse events or higher” value in data set [1] (setting [10]) was “approximately 25%”. Further, the “most common side effects” value in data set [1] (ref Cattrini et al., 2022) was “fatigue, hypertension, diarrhea, and weight loss”. The “selectivity and potency against AR” value in the data set with AR was “higher selectivity and potency against AR”.

Take `CC(O)c1cc(C(=O)N[C@@H](C)Cn2ccc(-c3ccc(C#N)c(Cl)c3)n2)[nH]n1` (stereo partly shown) [darolutamide]: the brain penetrance entry in data set [8] is “reductions in brain penetrance”. Further, in data set [1] (human, in vivo), the “grade 3 adverse events or higher” value was “approximately 25%”; the “most common side effects” value is “fatigue, hypertension, diarrhea, and weight loss”. Besides, the “selectivity and potency against AR” value in the data set on AR was “higher selectivity and potency against AR”.

On to Bouvardin, for which the “inhibition of de novo protein synthesis” value in data set [9] is listed as “can inhibit de novo protein synthesis”.
